Assay [1] has as its target Melanocortin receptor 3 (Homo sapiens, UniProt P41968). As to the kind of experiment: Binding affinity for human Melanocortin-3 receptor.
Assay [2] concerns the target T1, Melanocortin receptor 4 (Homo sapiens, UniProt P32245). Description: Binding affinity against human Melanocortin-4 receptor.
The target in assay [3] is Melanocortin receptor 5 (Homo sapiens, UniProt P33032). Description: Binding affinity against human Melanocortin 5 receptor.
Assay [4] addresses T1, Melanocortin receptor 4. As to the kind of experiment: Agonist activity against human Melanocortin-4 receptor. It counts as functional.

In ChEMBL document CHEMBL1135658, “Structure-activity studies of the melanocortin peptides: discovery of potent and selective affinity antagonists for the hMC3 and hMC4 receptors” (J Med Chem, 2002) one finds IC50, EC50 and Activity data, which are given here for three compounds.

Positions of bridges follow the written chain, without caps; N, C: chain ends. Non-standard residues stand in square brackets, D forms with d. Residues, ends and D or L forms follow the SMILES beside them. d2Nal = N[C@H](Cc1ccc2ccccc2c1)C(=O)O

T1 sequence (P32245 whole entry): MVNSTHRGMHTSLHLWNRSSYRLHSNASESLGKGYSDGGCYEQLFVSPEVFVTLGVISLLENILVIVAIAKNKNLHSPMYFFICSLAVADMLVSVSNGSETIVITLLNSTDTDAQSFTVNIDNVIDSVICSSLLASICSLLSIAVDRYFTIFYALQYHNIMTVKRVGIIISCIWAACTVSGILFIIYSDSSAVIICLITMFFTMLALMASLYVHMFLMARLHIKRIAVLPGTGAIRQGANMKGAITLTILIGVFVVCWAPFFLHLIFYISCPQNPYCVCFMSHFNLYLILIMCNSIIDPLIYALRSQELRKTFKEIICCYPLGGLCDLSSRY
Chain of Melanocortin receptor 5 (P33032 whole entry): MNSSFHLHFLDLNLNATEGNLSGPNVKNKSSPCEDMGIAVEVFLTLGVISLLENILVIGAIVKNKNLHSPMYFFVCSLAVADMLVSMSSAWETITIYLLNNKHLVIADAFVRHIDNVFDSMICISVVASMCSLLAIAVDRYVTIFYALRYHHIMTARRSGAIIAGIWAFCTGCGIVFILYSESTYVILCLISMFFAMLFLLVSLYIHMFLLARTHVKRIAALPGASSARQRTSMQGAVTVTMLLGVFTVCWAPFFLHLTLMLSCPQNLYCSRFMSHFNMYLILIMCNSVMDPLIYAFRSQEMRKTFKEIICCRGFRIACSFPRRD
Chain of Melanocortin receptor 3 (P41968 whole entry): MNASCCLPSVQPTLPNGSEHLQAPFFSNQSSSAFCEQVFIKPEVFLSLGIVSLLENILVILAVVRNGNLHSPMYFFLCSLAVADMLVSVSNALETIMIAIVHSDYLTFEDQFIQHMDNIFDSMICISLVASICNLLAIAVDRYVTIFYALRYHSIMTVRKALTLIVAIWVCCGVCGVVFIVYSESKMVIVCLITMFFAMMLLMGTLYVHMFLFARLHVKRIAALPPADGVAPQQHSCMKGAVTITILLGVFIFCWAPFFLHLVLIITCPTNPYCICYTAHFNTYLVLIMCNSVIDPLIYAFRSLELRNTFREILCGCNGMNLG

The IC50 is the concentration that inhibits the measured activity by half. The EC50 is the concentration at which the effect is half-maximal. A high value points to a less potent agent. With `N=C(N)NCCC[C@@H]1NC(=O)[C@@H](Cc2cccc3ccccc23)NC(=O)CCC(=O)NCCCC[C@@H](C(N)=O)NC(=O)[C@H](Cc2c[nH]c3ccccc23)NC1=O`, the IC50 in assay [1] was determined as 0.15 µM; in assay [2], 0.0005 µM; in assay [3] it was 0.54 µM. This compound also displayed an EC50 in assay [3] of 0.53 µM.
Consider `CC(=O)N[C@H]1CSSC[C@@H](C(=O)N2CCC[C@H]2C(=O)N2CCC[C@H]2C(=O)N[C@@H](CCCCN)C(=O)N[C@@H](CC(=O)O)C(N)=O)NC(=O)CNC(=O)[C@H](Cc2c[nH]c3ccccc23)NC(=O)[C@H](CCCNC(=N)N)NC(=O)[C@@H](Cc2ccc3ccccc3c2)NC(=O)[C@H](Cc2c[nH]cn2)NC(=O)[C@H](CCC(=O)O)NC1=O` (Ac-CEH[d2Nal]RWGCPPKD-NH2; disulfide 1-8), for which the IC50 came to 0.025 µM in assay [1], 0.0015 µM in assay [2] and 0.016 µM in assay [3].
The compound `CC(=O)[C@@H]1CSSC[C@@H](C(=O)N2CCC[C@H]2C(=O)CN2CCC[C@H]2C(=O)CN[C@@H](CCCCN)C(=O)CN[C@@H](CC(=O)O)C(N)=O)NC(=O)CNC(=O)[C@@H](Cc2c[nH]c3ccccc23)NC(=O)[C@H](CCCN=C(N)N)NC(=O)[C@H](Cc2ccc3ccccc3c2)NC(=O)[C@H](Cc2c[nH]cn2)NC(=O)[C@@H](CCC(=O)O)NC1=O` gave an Activity in assay [4] of 0%.
